Source: patent US20100273833A1, “2-SULFINYL- AND 2-SULFONYL-SUBSTITUTED IMIDAZOLE DERIVATIVES AND THEIR USE AS CYTOKINE INHIBITORS” (priority 2005, published 2010)
≈ marks a conversion by molar mass, not a printed value. Structures can show the parent of a compound that is named as a salt.

What was measured:
[1] = Solubility in water; assay type: physicochemical
[2] = In vitro metabolism, incubation with rat liver microsomes; assay type: in vitro ADME; details: phosphate buffer pH 7.4, NADPH, 37° C., HPLC peak areas
Experimental: The test substances were incubated in standard experiments with rat liver microsomes (phosphate buffer with pH 7.4, NADPH, 37° C.). The biotransformations were stopped after 0, 15, 30 and 60 min by adding acetonitrile and were centrifuged, and the protein-free supernatant was analyzed by HPLC. Resulting metabolites were approximately quantified via the peak areas. The result of the biotransformation of Example 12 and of the corresponding sulfanyl compound, which is representative in terms of the sulfinyl/sulfanyl substitution comparison, is described by way of example. The sulfanyl compound was rapidly converted into a number of metabolites and, after 30 min, less than 1% of the pharmacologically active starting substance remained. Under identical experimental conditions, about 70% of the initial amount of Example 12 were still present after 30 min, and more than 50% were still present after 60 min.

Row | SMILES | solubility in water [1] [µg/mL] | also measured
1 | CC(=O)Nc1cc(-c2c(-c3ccc(F)cc3)nc([S+](C)[O-])n2C)ccn1 (stereo not drawn) [Example 3 hydrochloride, N-{4-[5-(4-Fluorophenyl)-2-methanesulfinyl-3-methyl-3H-imidazol-4-yl]pyridin-2-yl}acetamide] | 1120 | 
2 | CC(=O)Nc1cc(-c2c(-c3ccc(F)cc3)nc([S+](C)[O-])n2C)ccn1 (stereo not drawn) [Example 3 methane sulfonate, N-{4-[5-(4-Fluorophenyl)-2-methanesulfinyl-3-methyl-3H-imidazol-4-yl]pyridin-2-yl}acetamide] | 890 | 
3 | Fc1ccc(-c2nc3n(c2-c2ccnc(Nc4ccccc4)c2)CCS3)cc1 [Example 34, {4-[6-(4-Fluorophenyl)-2,3-dihydro-imidazo[2,1-b]thiazol-5-yl]-pyridin-2-yl}-phenyl-amine] |  | melting point: 298.7 °C
4 | CC(=O)Nc1cc(-c2c(-c3ccc(F)cc3)nc([S+](C)[O-])n2C)ccn1 (stereo not drawn) [Example 3, N-{4-[5-(4-Fluorophenyl)-2-methanesulfinyl-3-methyl-3H-imidazol-4-yl]pyridin-2-yl}acetamide] | 70 (≈ 188 µM) | 
5 | CC(=O)Nc1cc(-c2c(-c3ccc(F)cc3)nc([S+](C)[O-])n2C)ccn1 (stereo not drawn) [Example 3 hydrogensulfate, N-{4-[5-(4-Fluorophenyl)-2-methanesulfinyl-3-methyl-3H-imidazol-4-yl]pyridin-2-yl}acetamide] | 390 (≈ 1050 µM) | 
6 | COCCn1c([S+](C)[O-])nc(-c2ccc(F)cc2)c1-c1ccnc(NC(C)C)c1 (stereo not drawn) [Example 12, {4-[5-(4-Fluorophenyl)-2-methanesulfinyl-3-(2-methoxyethyl)-3H-imidazol-4-yl]pyridin-2-yl}isopropylamine] |  | initial amount of starting substance still present after 30 min ([2]; 30 min): about 70%; initial amount still present after 60 min ([2]; 60 min): more than 50%

The next lines start with results.

Row | solubility in water [1] [µg/mL] | SMILES | also measured
7 | 1050 | CC(=O)Nc1cc(-c2c(-c3ccc(F)cc3)nc([S+](C)[O-])n2C)ccn1 (stereo not drawn) [Example 3 hydrobromide, N-{4-[5-(4-Fluorophenyl)-2-methanesulfinyl-3-methyl-3H-imidazol-4-yl]pyridin-2-yl}acetamide] | 
8 | 310 | CC(=O)Nc1cc(-c2c(-c3ccc(F)cc3)nc([S+](C)[O-])n2C)ccn1 (stereo not drawn) [Example 3 sulfate, N-{4-[5-(4-Fluorophenyl)-2-methanesulfinyl-3-methyl-3H-imidazol-4-yl]pyridin-2-yl}acetamide] | 
